Test results: patent US4568490A, “Aminopropylaminobleomycin derivatives and process for preparation thereof” (Zaidan Hojin Biseibutsu Kagaku Kenkyu Kai, priority 1981, dated 1986)

Assays:
[1] = system: Mycobacterium smegmatis ATCC 607; assay: Antimicrobial activity, agar plate-cylinder method; format: cell-based; settings: Cu-free form; bleomycin A2 (Cu-free form) standard assumed 1,000 mcg/mg
Experimental: (§1) The activity was assayed against the above test microorganisms by the method of agar plate-cylinder, assuming the potency of bleomycin A2 (Cu-free form), used as standard, to be 1,000 mcg/mg.

[2] = system: Bacillus subtilis; assay: Antimicrobial activity, agar plate-cylinder method; format: cell-based; settings: Cu-free form; bleomycin A2 (Cu-free form) standard assumed 1,000 mcg/mg
Experimental: (1) Antimicrobial activity against Mycobacterium smegmatis ATCC 697 and Bacillus subtilis.
as §1

[3] = system: Hela S3 cells; assay: Growth inhibitory activity against Hela S3 cells; format: cell-based; settings: Cu-free form; Hela S3, 3 days incubation with compound
Experimental: The percentage growth inhibition was calculated using the equation: […] wherein A is the ultimate number of cells on the third day from the addition of a test sample, B is the ultimate number of cells in the control (without the addition of test sample), and C is the number of cells on the day of addition of the test sample.

[4] = system: ICR mice; assay: Pulmonary toxicity (pulmonary fibrosis) in mice, intratracheal instillation; format: in vivo; settings: 16 μg/50 μl/mouse intratracheally, sacrificed 4 weeks after instillation; for Grade: total score of pulmonary fibrosis/total number of samples: score 0-6 points
Experimental: Male 15 weeks old ICR mice were used. Sixteen μg/50 μl/mouse of each test sample was intratracheally instilled. The mice were sacrificed 4 weeks after instillation to examine the incidence and grade of pulmonary fibrosis. The evaluation was made by comparing the number of administered mice suffering from pulmonary fibrosis and the grade of the disease.
(§2) In Tables 4A and 4B, the grade was numerically rated as follows:
(§3) 1 point: Accumulation of exudate in pulmonary alveoli and fibrosis-like change in alveolar septum.
(§4) 2 points: Fibrosis in several areas.
(§5) 4 points: Scattered fibrosis.
(§6) 6 points: Fibrosis in more than two-thirds of the total area.

[5] = system: ICR strain mice; assay: Pulmonary toxicity (pulmonary fibrosis) in mice, intraperitoneal injection; format: in vivo; settings: 5 mg/kg i.p. once a day for 10 days; for Grade of pulmonary fibrosis, % / Incidence of pulmonary fibrosis, % / Incidence: number of mice suffering from pulmonary fibrosis / Grade: total score of pulmonary fibrosis/total number of test animal: autopsy after 5 weeks; for Incidence: number of mice suffering from pulmonary fibrosis: affected/total mice; for Grade: total score of pulmonary fibrosis/total number of test animal: score 0-6 points; for Grade of pulmonary fibrosis, Ratio / Incidence of pulmonary fibrosis, Ratio: reference of the ratio not stated
Experimental: (3) Pulmonary toxicity (pulmonary fibrosis) in mice.
ICR strain mice (male; 15 weeks old; 9 mice per group) were used. Each mouse was administered with a daily dose of 5 mg/kg of the test sample by intraperitoneal injection, once a day, for 10 consecutive days. After completion of the predetermined administration, the mice were kept for 5 weeks under observation, then slaughtered, and autopsied to examine the incidence and grade of pulmonary fibrosis. The evaluation was made by comparing the number of administered mice suffering from pulmonary fibrosis and the grade of the disease.
as §2, §3, §4, §5, §6

SMILES | Antimicrobial potency of Cu--free compound, against Mycobacterium smegmatis ATCC 607 [1] [mcg potency per mg] | Antimicrobial potency of Cu--free compound, against Bacillus subtilis [2] [mcg potency per mg] | 50% growth inhibition concentration (ID50) of Cu--free compound against cultured Hela cell [3] [µg/mL] | Grade of pulmonary fibrosis, % [4] [%] | Incidence of pulmonary fibrosis, % [4] [%] | Incidence: number of mice with pulmonary fibrosis/number of mice [4] | Grade: total score of pulmonary fibrosis/total number of samples [4] | Grade of pulmonary fibrosis, % [5] [%] | Incidence of pulmonary fibrosis, % [5] [%] | Incidence: number of mice suffering from pulmonary fibrosis [5] | Grade: total score of pulmonary fibrosis/total number of test animal [5] | Grade of pulmonary fibrosis, Ratio [5] | Incidence of pulmonary fibrosis, Ratio [5]
Cc1c(N)nc(C(CC(N)=O)NCC(N)C(N)=O)nc1C(=O)NC(C(=O)NC(C)C(O)C(C)C(=O)NC(C(=O)NCCc1nc(-c2nc(C(=O)NCCCN(C)CCCNCC3CCCC3)cs2)cs1)C(C)O)C(OC1OC(CO)C(O)C(O)C1OC1OC(CO)C(O)C(OC(N)=O)C1O)c1cnc[nH]1 (stereo not drawn) [compound 28, 3-{N--Methyl-N--[3'-(cyclopentylmethylamino)propyl]amino}propylaminoBLM] | 13595 | 16180 | 1.00 | – | – | – | – | – | – | – | – | – | –
Cc1c(N)nc(C(CC(N)=O)NCC(N)C(N)=O)nc1C(=O)NC(C(=O)NC(C)C(O)C(C)C(=O)NC(C(=O)NCCc1nc(-c2nc(C(=O)NCCCNCCCNC(C)c3ccccc3)cs2)cs1)C(C)O)C(OC1OC(CO)C(O)C(O)C1OC1OC(CO)C(O)C(OC(N)=O)C1O)c1cnc[nH]1 (stereo not drawn) [PEPP, 3-[3-(N-1-phenylethyl)aminopropyl]aminopropylamino-bleomycin, reference compound] | – | – | – | 56 | 89 | 8/9 | 15/27 | – | – | – | – | – | –
Cc1c(N)nc(C(CC(N)=O)NCC(N)C(N)=O)nc1C(=O)NC(C(=O)NC(C)C(O)C(C)C(=O)NC(C(=O)NCCc1nc(-c2nc(C(=O)NCCCN(C)CCCNCCC3CCCCC3)cs2)cs1)C(C)O)C(OC1OC(CO)C(O)C(O)C1OC1OC(CO)C(O)C(OC(N)=O)C1O)c1cnc[nH]1 (stereo not drawn) [compound 30, 3-{N--Methyl-N--[3'-(cyclohexylethylamino)propyl]amino}propylaminoBLM] | 35030 | 14440 | 0.56 | – | – | – | – | – | – | – | – | – | –
Cc1c(N)nc(C(CC(N)=O)NCC(N)C(N)=O)nc1C(=O)NC(C(=O)NC(C)C(O)C(C)C(=O)NC(C(=O)NCCc1nc(-c2nc(C(=O)NCCCN3CCN(CCCNCc4ccc(Cl)cc4)CC3)cs2)cs1)C(C)O)C(OC1OC(CO)C(O)C(O)C1OC1OC(CO)C(O)C(OC(N)=O)C1O)c1cnc[nH]1 (stereo not drawn) [compound 44, 3-[4-(3-p-Chlorobenzylaminopropyl)piperazin-l-yl]propylaminoBLM] | 11350 | 6080 | 0.31 | – | – | – | – | 0 | 0 | 0/9 | 0/27 | 0.00 | 0.00
Cc1c(N)nc(C(CC(N)=O)NCC(N)C(N)=O)nc1C(=O)NC(C(=O)NC(C)C(O)C(C)C(=O)NC(C(=O)NCCc1nc(-c2nc(C(=O)NCCCN(C)CCCNCc3ccc([N+](=O)[O-])cc3)cs2)cs1)C(C)O)C(OC1OC(CO)C(O)C(O)C1OC1OC(CO)C(O)C(OC(N)=O)C1O)c1cnc[nH]1 (stereo not drawn) [MNBZ, 3-(N-methyl-N-3-p-nitro-benzylamino-propyl)aminopropylamino-bleomycin, reference compound] | – | – | – | 104 | 89 | 8/9 | 28/27 | – | – | – | – | – | –
COc1ccc(COc2ccc(CN(CCCN(C)CCCNC(=O)c3csc(-c4csc(CCNC(=O)C(NC(=O)C(C)C(O)C(C)NC(=O)C(NC(=O)c5nc(C(CC(N)=O)NCC(N)C(N)=O)nc(N)c5C)C(OC5OC(CO)C(O)C(O)C5OC5OC(CO)C(O)C(OC(N)=O)C5O)c5cnc[nH]5)C(C)O)n4)n3)Cc3ccc(OCc4ccc(OC)cc4)c(OCc4ccc(OC)cc4)c3)cc2OCc2ccc(OC)cc2)cc1 (stereo not drawn) [compound 50] | 145 | 35 | 0.70 | – | – | – | – | 0 | 0 | 0/9 | 0/27 | 0.00 | 0.00
Cc1c(N)nc(C(CC(N)=O)NCC(N)C(N)=O)nc1C(=O)NC(C(=O)NC(C)C(O)C(C)C(=O)NC(C(=O)NCCc1nc(-c2nc(C(=O)NCCCN(C)CCCN(Cc3ccc(OCc4ccc(OCc5ccccc5)cc4)cc3)Cc3ccc(OCc4ccc(OCc5ccccc5)cc4)cc3)cs2)cs1)C(C)O)C(OC1OC(CO)C(O)C(O)C1OC1OC(CO)C(O)C(OC(N)=O)C1O)c1cnc[nH]1 (stereo not drawn) [compound 51] | 163 | 46 | 0.12 | – | – | – | – | 0 | 0 | 0/9 | 0/27 | 0.00 | 0.00
Cc1c(N)nc(C(CC(N)=O)NCC(N)C(N)=O)nc1C(=O)NC(C(=O)NC(C)C(O)C(C)C(=O)NC(C(=O)NCCc1nc(-c2nc(C(=O)NCCCN(C)CCCNCC3CCCCCC3)cs2)cs1)C(C)O)C(OC1OC(CO)C(O)C(O)C1OC1OC(CO)C(O)C(OC(N)=O)C1O)c1cnc[nH]1 (stereo not drawn) [compound 31, 3-{N--Methyl-N--[3'-(cycloheptylmethylamino)propyl]amino}propylaminoBLM] | 25924 | 20143 | 0.48 | – | – | – | – | – | – | – | – | – | –
Cc1c(N)nc(C(CC(N)=O)NCC(N)C(N)=O)nc1C(=O)NC(C(=O)NC(C)C(O)C(C)C(=O)NC(C(=O)NCCc1nc(-c2nc(C(=O)NCCCN(C)CCCN(Cc3ccc(OCc4ccc(Cl)cc4)c(OCc4ccc(Cl)cc4)c3)Cc3ccc(OCc4ccc(Cl)cc4)c(OCc4ccc(Cl)cc4)c3)cs2)cs1)C(C)O)C(OC1OC(CO)C(O)C(O)C1OC1OC(CO)C(O)C(OC(N)=O)C1O)c1cnc[nH]1 (stereo not drawn) [compound 48, 3-{N--Methyl-N--[3'-(bis(3",4"di(p-chlorobenzyloxy)benzyl)amino)propyl]amino}propylaminoBLM] | 14 | 8 | 0.058 | – | – | – | – | 0 | 0 | 0/9 | 0/27 | 0.00 | 0.00
Cc1c(N)nc(C(CC(N)=O)NCC(N)C(N)=O)nc1C(=O)NC(C(=O)NC(C)C(O)C(C)C(=O)NC(C(=O)NCCc1nc(-c2nc(C(=O)NCCCNC(C)c3ccccc3)cs2)cs1)C(C)O)C(OC1OC(CO)C(O)C(O)C1OC1OC(CO)C(O)C(OC(N)=O)C1O)c1c[nH]cn1 [PEP, 3-[(S)-1'-phenylethylamino]propylamino-bleomycin, reference compound] | – | – | – | 150 | 75 | 6/8 | 36/24 | – | – | – | – | – | –
Cc1c(N)nc(C(CC(N)=O)NCC(N)C(N)=O)nc1C(=O)NC(C(=O)NC(C)C(O)C(C)C(=O)NC(C(=O)NCCc1nc(-c2nc(C(=O)NCCCN(C)CCCNCC3CCCCC3)cs2)cs1)C(C)O)C(OC1OC(CO)C(O)C(O)C1OC1OC(CO)C(O)C(OC(N)=O)C1O)c1cnc[nH]1 (stereo not drawn) [compound 29, 3-{N--Methyl-N--[3'-(cyclohexylmethylamino)propyl]amino}propylaminoBLM] | 15414 | 12148 | 0.63 | – | – | – | – | – | – | – | – | – | –
